Measurements reported in ChEMBL document CHEMBL1201862, “PubChem BioAssay data set” (2004).
Active and inactive are the calls of the source. Cut-off read from the data, not from the text of the source, for most assays here: actives have a measured EC50 and inactives only a lower limit.

Key:
[1] = inhibitors of intracellular T. cruzi replication, confirmation, NIH3T3 host cells, beta-gal luminescence (AID 2044); assay type: functional, cell-based;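 note: intracellular parasites grown in NIH/3T3 mouse fibroblasts as host cells; luminescent beta-galactosidase reporter signal from transgenic T. cruzi replicating inside host cells; inhibitors lower the luminescence signal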
[2] = cytotoxicity toward NIH3T3 fibroblasts, dose response, counter-screen, cell-based, ATP luminescence, mouse fibroblasts (AID 2010); assay type: functional;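 note: cells exposed to compound for about 90 hours before reading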
[3] = HEp-2 cell cytotoxicity, dose response, cytotoxicity control for RSV inhibitor project, HTS (AID 2410); assay type: functional; conditions: human respiratory syncytial virus
[4] = Luminescence Cell-Based Dose Retest to Confirm Inhibitors of Cancer Stem Cells. [Related pubchem assays (depositor defined):AID2717, AID2721]; assay type: functional; conditions: Homo sapiens
H4 = assay: Luminescence Cell-Based Dose Response HTS to Identify Activators of 5'UTR Stem-Loop Driven Prion Protein mRNA Translation in H4 Neuroglioblastoma Cells. [Related pubchem assays: 1829 (Project Summary), 1814 (Primary HTS)]; assay type: functional; conditions: Homo sapiens
[5] = Luminescence Cell-Based Dose Response HTS to Identify Activators of Luciferase Translation or Activity in H4 […] Cells. [Related pubchem assays: 1829 (Project Summary), 1814 (Primary HTS)]; assay type: functional
[6] = Luminescence Cell-Based Dose Confirmation HTS to Identify Activators of 5'UTR Stem-Loop Driven Alpha-Synuclein mRNA Translation in H4 Neuroglioblastoma Cells. [Related pubchem assays: 1829 (Project Summary), 1814 (Primary HTS)]; assay type: functional
[7] = target: T1, Heat shock factor protein 1 (Mus musculus, UniProt P38532); assay: HSF1 potentiators in luciferase reporter cells, confirmation, cell-based, NIH3T3, luminescence, dose retest (AID 435004); assay type: functional;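 note: stress induced by proteasome inhibitor MG132 added 30 min after compound; luciferase reporter driven by HSF1 response element in NIH3T3 cells; actives raise luminescence as potentiators of the MG132 stress response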
T1 sequence (P38532 whole entry): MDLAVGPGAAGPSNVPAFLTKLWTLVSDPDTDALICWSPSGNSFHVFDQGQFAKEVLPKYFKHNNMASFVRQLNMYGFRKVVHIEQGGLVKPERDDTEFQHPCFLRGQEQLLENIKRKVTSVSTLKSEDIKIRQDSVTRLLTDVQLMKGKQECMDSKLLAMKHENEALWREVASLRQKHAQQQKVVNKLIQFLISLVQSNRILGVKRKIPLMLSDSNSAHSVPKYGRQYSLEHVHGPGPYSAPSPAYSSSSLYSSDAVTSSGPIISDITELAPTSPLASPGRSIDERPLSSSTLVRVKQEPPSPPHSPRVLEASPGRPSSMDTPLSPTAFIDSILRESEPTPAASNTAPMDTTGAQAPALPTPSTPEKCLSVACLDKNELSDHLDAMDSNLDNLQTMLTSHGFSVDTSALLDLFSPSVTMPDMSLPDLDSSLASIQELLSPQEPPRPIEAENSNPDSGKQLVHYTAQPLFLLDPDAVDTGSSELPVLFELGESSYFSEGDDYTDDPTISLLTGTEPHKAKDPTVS

Cytochrome P450 3A4 = Cytochrome P450 3A4 (Homo sapiens, UniProt P08684);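 note: CYP3A4 tested as one member of a cytochrome P450 panel screen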
[8] = growth suppression of PTEN-null colon cells, dose response, cell-based, HCT116 PTEN knockout (AID 1047); assay type: functional;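 note: HCT116 colon tumor cells with PTEN knocked out; cells exposed to compound for 60 hours before readout; potency for loss of cell viability measured by luminescence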
[9] = growth suppression of beta-catenin-knockout colon cells, dose response, cell-based, HCT116, human colon tumor (AID 1045); assay type: functional;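 note: HCT116 colon tumor cells with beta catenin knocked out; cells exposed to compound for 60 hours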
[10] = Luminescence Cell-Based Dose Response HTS to Identify Inhibitors of 5'UTR Stem-Loop Driven Prion Protein mRNA Translation in H4 Neuroglioblastoma Cells. [Related pubchem assays: 1827 (Project Summary), 1813 (Primary HTS)]; assay type: functional
[11] = inhibitors of SNCA 5'UTR-driven reporter translation, confirmation, H4 neuroglioma cells, luminescence (AID 1988); assay type: functional, cell-based
[12] = inhibitors of firefly luciferase expression or activity, dose response, H4 neuroglioma cells, luminescence (AID 1990); assay type: functional, cell-based

Chain of Cytochrome P450 3A4 (P08684 whole entry): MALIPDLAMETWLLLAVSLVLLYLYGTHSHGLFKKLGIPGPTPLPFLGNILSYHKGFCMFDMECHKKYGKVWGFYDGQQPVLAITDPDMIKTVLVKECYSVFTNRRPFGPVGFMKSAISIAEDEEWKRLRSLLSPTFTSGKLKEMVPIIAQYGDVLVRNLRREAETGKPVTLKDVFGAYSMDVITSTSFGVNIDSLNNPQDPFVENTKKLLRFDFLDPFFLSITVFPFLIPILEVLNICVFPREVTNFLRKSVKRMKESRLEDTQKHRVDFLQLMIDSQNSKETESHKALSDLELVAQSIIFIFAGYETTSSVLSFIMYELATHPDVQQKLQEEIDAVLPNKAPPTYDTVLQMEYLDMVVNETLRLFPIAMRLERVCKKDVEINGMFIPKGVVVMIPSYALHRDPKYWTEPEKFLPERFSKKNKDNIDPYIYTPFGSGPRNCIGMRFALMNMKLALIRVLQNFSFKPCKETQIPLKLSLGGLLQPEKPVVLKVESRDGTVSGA

Cc1ccccc1Nc1nc(N)nc(-c2oc3ccccc3c2C)n1
EC50 [1]: 3.43 µM (active)
EC50 [2]: > 60 µM (not active)
CC50 [3]: 35.4 µM (active)

Cc1ccc(-n2nnnc2SC(C(=O)c2c[nH]c3ccccc23)c2ccccc2)cc1 (stereo unspecified)
AC50 [4]: 2.14 µM (active)

O=C(Cc1ccc(F)cc1)Nc1nnc(SCC(=O)N2CCCCC2)s1
AC50 [4]: 24.3 µM (active)

O=C(CN1C(=O)S/C(=C\C=C\c2ccccc2)C1=O)N1CCOCC1
EC50 (H4): 17.8 µM (active)
EC50 [5]: 10.3 µM (active)
EC50 [6]: 12.2 µM (active)

COc1ccc(OC)c(C(=O)/C=C/c2ccccc2C(F)(F)F)c1
AC50 [4]: 5.2 µM (active)

COCCOC(=O)C1=C(C)N=C(C)/C(=C(/O)OCCOC)C1/C=C/c1ccccc1OC (stereo unspecified)
EC50 [7]: 45.7 µM (active)

COc1ccc(Cl)cc1NC(=O)CCc1nc(-c2ccccc2F)no1
EC50 [7]: > 260 µM (inactive)

CC(C)(C)NC(=O)C(c1c[nH]c2ccccc12)N(C(=O)Cn1nnc(-c2ccc(Cl)cc2)n1)c1ccccc1F (stereo unspecified)
EC50 [1]: 1.79 µM (active)
EC50 [2]: > 60 µM (not active)
CC50 [3]: 25.8 µM (active)

CC(=O)c1cc2c(s1)-c1cc(F)ccc1OC2
CC50 [3]: 33.3 µM (active)

O=C(OC(C(=O)Nc1ccc(Cl)cc1C(F)(F)F)c1ccccc1)c1c(Cl)cccc1Cl (stereo unspecified)
CC50 [3]: 22.1 µM (active)

O=C(O)c1ccc(Cn2nnc3sc4c(c3c2=O)CCCC4)cc1
EC50 (H4): 53.1 µM (active)
EC50 [5]: 13.2 µM (active)
EC50 [6]: 13.2 µM (active)

COc1ccc(-c2sc3ccc(N4CCOCC4)cc3c2C#CC(C)(C)O)cc1
AC50 [4]: 0.873 µM (active)

Cc1cc(NC(=O)Cn2cnc3sc(C)c(-c4ccccc4)c3c2=O)no1
EC50 [7]: > 260 µM (inactive)

Cc1ccccc1S(=O)(=O)N1[C@@H](c2cccc(Cl)c2)C(C(=O)O)=CC[C@H]1c1ccc(Cl)cc1
CC50 [3]: 15.4 µM (active)

COc1ccc(CCN2C(=S)N(C)C(=O)C2CC(=O)Nc2ccc(OC)cc2)cc1 (stereo unspecified)
AC50 [4]: 5.5 µM (active)

CCn1c2c(c3ccc(OC)cc31)CCCC2=O
CC50 [3]: > 50 µM (active)

COc1ccc([N+](=O)[O-])cc1NC(=O)C(C)N(C)Cc1cccc(OC)c1OC (stereo unspecified)
CC50 [3]: > 50 µM (active)

O=C(OCCOc1ccccc1)c1[nH]nc2ccccc12
EC50 (H4): 98.3 µM (inconclusive)
EC50 [5]: 0.748 µM (active)
EC50 [6]: 3.16 µM (active)

Cc1ccc(N2C(=O)C3C4C=CC(CC4)C3C2=O)cc1Br (stereo unspecified)
AC50 [4]: 0.678 µM (active)

COc1ccccc1C(=O)Nc1ccc2c(c1)nc(CCNC(=O)c1ccco1)n2C
EC50 (H4): > 120 µM (not active)
EC50 [5]: 81.6 µM (active)
EC50 [6]: 20.2 µM (active)

CCc1ccc(-c2cc(C(F)(F)F)n3nc(C(=O)Nc4cnn(Cc5ccccc5C)c4)cc3n2)s1
AC50 (Cytochrome P450 3A4): 3.16 µM (inconclusive)

Cc1cccc(Cn2cc(/C=C/[N+](=O)[O-])c3ccccc32)c1
AC50 [4]: 3.7 µM (active)
CC50 [3]: 12.7 µM (active)

COc1ccccc1-c1nnc(SCC(=O)Nc2ccccc2)o1
EC50 (H4): 66.2 µM (inconclusive)
EC50 [5]: 4.37 µM (inconclusive)
EC50 [6]: 0.382 µM (active)

CCN(CCCNC(=O)COc1cc(=O)n(C)c2ccccc12)c1cccc(C)c1
EC50 [7]: > 260 µM (inactive)

COc1ccc(-c2cc(=O)oc3cc(OCC(=O)c4cccc([N+](=O)[O-])c4)ccc23)cc1
EC50 [8]: 24.9 µM (active)
EC50 [9]: 21.8 µM (active)

Cc1ccc(Nc2[nH]nc(C)c2[N+](=O)[O-])cc1
EC50 (H4): 0.172 µM (active)
EC50 [5]: 25.3 µM (active)
EC50 [6]: 44.9 µM (active)

O=C(CSc1nnc2c(Cl)cc(C(F)(F)F)cn12)N(Cc1ccccc1)Cc1ccccc1
EC50 [7]: > 260 µM (inactive)

Cc1cccc(CNc2ccc(C(CC(N)=O)NC(=O)Cc3cccc4ccccc34)cc2[N+](=O)[O-])c1 (stereo unspecified)
AC50 [4]: 5.85 µM (active)

CCOc1ccccc1NC(=O)c1nnn(-c2ccc3c(c2)OCCO3)c1N
CC50 [3]: 24.3 µM (active)

Cc1ccc(N=NC2=C(O)OC(C)(C)OC2=O)c(C)c1
EC50 (H4): 19.1 µM (active)
EC50 [5]: 14.7 µM (active)
EC50 [6]: 15 µM (active)

O=C(NC1CCCC1)c1ccc(CSCc2ccccc2F)o1
EC50 (H4): > 120 µM (not active)
EC50 [5]: 16.2 µM (active)
EC50 [6]: > 120 µM (not active)

CCCCn1c(SCC(=O)Nc2cc(NC(=O)c3ccco3)ccc2C)nc2ccccc2c1=O
EC50 [8]: 14.4 µM (active)
EC50 [9]: 19.7 µM (active)

Cc1ccccc1Cn1nc(C)c(NC(=O)C2c3ccccc3Oc3ccccc32)c1C
EC50 [7]: > 260 µM (inactive)

Cc1nc2c(sc3nc4c(cc32)COC(C)(C)C4)c(=O)n1Cc1ccccc1
EC50 (H4): 11.6 µM (active)
EC50 [5]: 7.48 µM (active)
EC50 [6]: 7.25 µM (active)

O=[N+]([O-])c1nn(-c2ccc3c(c2)OCCO3)[n+]([O-])c1NCCC1=CCCCC1
EC50 (H4): 77.1 µM (active)
EC50 [1]: 0.574 µM (active)
EC50 [2]: > 60 µM (not active)
AC50 [4]: 52.2 µM (active)

O=C(NC(=S)N1CCCCC1)c1csc([N+](=O)[O-])c1
EC50 (H4): > 120 µM (not active)
EC50 [5]: > 120 µM (not active)
EC50 [6]: 14.9 µM (active)

C=CCc1c(C)nc2c(OC)cccc2c1Cl
CC50 [3]: 48.5 µM (active)

CSCC(=O)N1CCC(n2nccc2NC(=O)c2ccc3c(c2)OCO3)CC1
EC50 (H4): > 120 µM (not active)
EC50 [5]: 12.3 µM (active)
EC50 [6]: 13.6 µM (active)

COc1ccc(C2Nc3ccccc3C(=O)N2NS(=O)(=O)c2ccc(C)cc2)cc1 (stereo unspecified)
EC50 [7]: > 260 µM (inactive)

Cc1ccc(C)c(OCCC(=O)N2CCN(S(=O)(=O)c3cc(C)ccc3C)CC2)c1
EC50 [10]: > 120 µM (not active)
EC50 [11]: 97 µM (active)
EC50 [12]: > 120 µM (not active)
CC50 [3]: 22.3 µM (active)

CC(C)(C)CC(C)(C)c1ccc(OCOCCOCCO)c(Cc2cc(C(C)(C)CC(C)(C)C)cc(Cc3cc(C(C)(C)CC(C)(C)C)ccc3OCOCCOCCO)c2OCOCCOCCO)c1
AC50 (Cytochrome P450 3A4): 12.6 µM (inconclusive)

O=C(Nc1ccc(Cn2cccn2)cc1)c1ccc(COc2cccc(Br)c2)cc1
AC50 [4]: < 0.16 µM (active)

O=C(O)CCn1[nH]c(=O)ccc1=O
EC50 [7]: > 260 µM (inactive)

COc1ccccc1NC(=O)Nc1nnc(-c2ccco2)s1
AC50 (Cytochrome P450 3A4): 17.8 µM (inconclusive)

CN(CC(=O)Nc1ccc(Cl)c(C(F)(F)F)c1)C(=O)Cc1c[nH]c2ccccc12
CC50 [3]: 16.7 µM (active)

CCn1c(SC)nnc1C1CCCN(CC(=O)Nc2ccccc2N2CCOCC2)C1 (stereo unspecified)
EC50 [7]: > 260 µM (inactive)

CCC1CCC2(CC1)SCC(=O)N2c1ccccc1 (stereo unspecified)
EC50 [7]: > 260 µM (inactive)

CCCSc1nnc2n(N)c(=O)c3ccccc3n12
AC50 (Cytochrome P450 3A4): 28.2 µM (inconclusive)

CC(/C=N/NC(=O)c1cc(-c2ccc(C)s2)[nH]n1)=C\c1ccccc1
AC50 [4]: 0.501 µM (active)

C=CCN1C(=O)C(Cc2ccc(OCC)cc2)S/C1=N/c1ccc(C(=O)O)cc1 (stereo unspecified)
EC50 [7]: > 260 µM (inactive)

Cc1c(/N=C2\SCC(=O)N2/N=C\c2ccc(Br)cc2)c(=O)n(-c2ccccc2)n1C
EC50 [7]: > 260 µM (inactive)
